Assay results taken from patent publication US6608086B2, “Dihydropyridines and new uses thereof” (Synaptic Pharmaceutical Corporation, priority 1993, dated 2003).
Counter-ions that a name gives are not always drawn. Like-named read-outs stand apart in the source and are kept apart here.

Assays:
α2A receptor = molecular target: T1, α2A receptor (Homo sapiens, UniProt P08913); assay: Competition binding, [3H]rauwolscine, human α2A receptor
T1 construct: host or cells: LM(tk-) cells, line L-α2A
T1 sequence (P08913 1-465): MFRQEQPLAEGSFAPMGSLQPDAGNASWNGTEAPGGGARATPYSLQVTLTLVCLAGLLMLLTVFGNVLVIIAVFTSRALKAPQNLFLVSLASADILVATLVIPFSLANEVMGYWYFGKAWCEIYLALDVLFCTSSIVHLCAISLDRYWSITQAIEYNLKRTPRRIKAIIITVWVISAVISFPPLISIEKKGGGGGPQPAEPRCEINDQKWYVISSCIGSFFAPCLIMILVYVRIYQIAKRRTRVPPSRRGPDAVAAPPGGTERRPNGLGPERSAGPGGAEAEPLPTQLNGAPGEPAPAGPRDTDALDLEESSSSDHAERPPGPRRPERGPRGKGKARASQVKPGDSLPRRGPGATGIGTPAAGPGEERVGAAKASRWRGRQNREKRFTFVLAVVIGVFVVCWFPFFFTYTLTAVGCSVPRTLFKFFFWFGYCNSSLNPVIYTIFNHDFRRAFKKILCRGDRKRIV
Summary of the method: (§1)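 Lysates of LM(tk−) cells stably expressing human α2A, α2B or α2C receptors in 25 mM glycylglycine pH 7.6. Equilibrium competition against 0.5 nM [3H]rauwolscine, with 10 μM phentolamine defining nonspecific binding. Bound ligand separated by GF/B filtration.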

α2B receptor = molecular target: T2, α2B receptor (Homo sapiens, UniProt P18089); assay: Competition binding, [3H]rauwolscine, human α2B receptor
T2 construct: host or cells: LM(tk-) cells, line L-NGC-α2B
T2 sequence (P18089 1-450): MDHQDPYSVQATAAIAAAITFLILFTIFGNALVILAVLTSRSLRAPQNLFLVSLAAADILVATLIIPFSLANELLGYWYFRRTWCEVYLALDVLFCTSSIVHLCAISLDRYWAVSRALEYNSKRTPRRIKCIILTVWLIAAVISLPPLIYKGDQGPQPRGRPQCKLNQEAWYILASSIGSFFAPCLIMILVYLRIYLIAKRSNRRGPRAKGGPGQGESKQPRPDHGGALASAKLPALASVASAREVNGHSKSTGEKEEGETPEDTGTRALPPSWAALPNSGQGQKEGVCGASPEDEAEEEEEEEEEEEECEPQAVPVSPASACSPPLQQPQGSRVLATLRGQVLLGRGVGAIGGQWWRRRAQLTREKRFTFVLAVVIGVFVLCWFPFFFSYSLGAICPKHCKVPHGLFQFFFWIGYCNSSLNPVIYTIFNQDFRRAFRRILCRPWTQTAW
Summary of the method: as §1

α2C receptor = molecular target: T3, α2C receptor (Homo sapiens, UniProt P18825); assay: Competition binding, [3H]rauwolscine, human α2C receptor
T3 construct: host or cells: LM(tk-) cells, line L-α2C
T3 sequence (P18825 1-462): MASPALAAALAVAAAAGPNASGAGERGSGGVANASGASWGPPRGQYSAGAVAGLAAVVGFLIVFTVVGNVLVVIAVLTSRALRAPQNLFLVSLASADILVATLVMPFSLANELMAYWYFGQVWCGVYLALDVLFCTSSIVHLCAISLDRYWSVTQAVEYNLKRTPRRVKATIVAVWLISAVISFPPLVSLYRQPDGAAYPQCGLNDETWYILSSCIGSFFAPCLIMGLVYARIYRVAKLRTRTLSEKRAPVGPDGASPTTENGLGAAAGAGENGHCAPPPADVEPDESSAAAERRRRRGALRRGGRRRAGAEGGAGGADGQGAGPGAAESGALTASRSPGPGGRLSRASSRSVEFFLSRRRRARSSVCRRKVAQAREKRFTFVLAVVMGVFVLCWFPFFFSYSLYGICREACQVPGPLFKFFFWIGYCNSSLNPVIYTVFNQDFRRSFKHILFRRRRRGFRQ
Summary of the method: as §1

L-type calcium channel = molecular target: T4, L-type calcium channel (Rattus norvegicus, UniProt P22002); assay: Competition binding of [3H]nitrendipine to membrane fragments of rat cardiac muscle
T4 construct: membrane fragments of rat cardiac muscle; from tissue; host or cells: rat cardiac muscle membranes
T4 sequence (P22002 whole entry, other chains not shown, the tested form may be a part): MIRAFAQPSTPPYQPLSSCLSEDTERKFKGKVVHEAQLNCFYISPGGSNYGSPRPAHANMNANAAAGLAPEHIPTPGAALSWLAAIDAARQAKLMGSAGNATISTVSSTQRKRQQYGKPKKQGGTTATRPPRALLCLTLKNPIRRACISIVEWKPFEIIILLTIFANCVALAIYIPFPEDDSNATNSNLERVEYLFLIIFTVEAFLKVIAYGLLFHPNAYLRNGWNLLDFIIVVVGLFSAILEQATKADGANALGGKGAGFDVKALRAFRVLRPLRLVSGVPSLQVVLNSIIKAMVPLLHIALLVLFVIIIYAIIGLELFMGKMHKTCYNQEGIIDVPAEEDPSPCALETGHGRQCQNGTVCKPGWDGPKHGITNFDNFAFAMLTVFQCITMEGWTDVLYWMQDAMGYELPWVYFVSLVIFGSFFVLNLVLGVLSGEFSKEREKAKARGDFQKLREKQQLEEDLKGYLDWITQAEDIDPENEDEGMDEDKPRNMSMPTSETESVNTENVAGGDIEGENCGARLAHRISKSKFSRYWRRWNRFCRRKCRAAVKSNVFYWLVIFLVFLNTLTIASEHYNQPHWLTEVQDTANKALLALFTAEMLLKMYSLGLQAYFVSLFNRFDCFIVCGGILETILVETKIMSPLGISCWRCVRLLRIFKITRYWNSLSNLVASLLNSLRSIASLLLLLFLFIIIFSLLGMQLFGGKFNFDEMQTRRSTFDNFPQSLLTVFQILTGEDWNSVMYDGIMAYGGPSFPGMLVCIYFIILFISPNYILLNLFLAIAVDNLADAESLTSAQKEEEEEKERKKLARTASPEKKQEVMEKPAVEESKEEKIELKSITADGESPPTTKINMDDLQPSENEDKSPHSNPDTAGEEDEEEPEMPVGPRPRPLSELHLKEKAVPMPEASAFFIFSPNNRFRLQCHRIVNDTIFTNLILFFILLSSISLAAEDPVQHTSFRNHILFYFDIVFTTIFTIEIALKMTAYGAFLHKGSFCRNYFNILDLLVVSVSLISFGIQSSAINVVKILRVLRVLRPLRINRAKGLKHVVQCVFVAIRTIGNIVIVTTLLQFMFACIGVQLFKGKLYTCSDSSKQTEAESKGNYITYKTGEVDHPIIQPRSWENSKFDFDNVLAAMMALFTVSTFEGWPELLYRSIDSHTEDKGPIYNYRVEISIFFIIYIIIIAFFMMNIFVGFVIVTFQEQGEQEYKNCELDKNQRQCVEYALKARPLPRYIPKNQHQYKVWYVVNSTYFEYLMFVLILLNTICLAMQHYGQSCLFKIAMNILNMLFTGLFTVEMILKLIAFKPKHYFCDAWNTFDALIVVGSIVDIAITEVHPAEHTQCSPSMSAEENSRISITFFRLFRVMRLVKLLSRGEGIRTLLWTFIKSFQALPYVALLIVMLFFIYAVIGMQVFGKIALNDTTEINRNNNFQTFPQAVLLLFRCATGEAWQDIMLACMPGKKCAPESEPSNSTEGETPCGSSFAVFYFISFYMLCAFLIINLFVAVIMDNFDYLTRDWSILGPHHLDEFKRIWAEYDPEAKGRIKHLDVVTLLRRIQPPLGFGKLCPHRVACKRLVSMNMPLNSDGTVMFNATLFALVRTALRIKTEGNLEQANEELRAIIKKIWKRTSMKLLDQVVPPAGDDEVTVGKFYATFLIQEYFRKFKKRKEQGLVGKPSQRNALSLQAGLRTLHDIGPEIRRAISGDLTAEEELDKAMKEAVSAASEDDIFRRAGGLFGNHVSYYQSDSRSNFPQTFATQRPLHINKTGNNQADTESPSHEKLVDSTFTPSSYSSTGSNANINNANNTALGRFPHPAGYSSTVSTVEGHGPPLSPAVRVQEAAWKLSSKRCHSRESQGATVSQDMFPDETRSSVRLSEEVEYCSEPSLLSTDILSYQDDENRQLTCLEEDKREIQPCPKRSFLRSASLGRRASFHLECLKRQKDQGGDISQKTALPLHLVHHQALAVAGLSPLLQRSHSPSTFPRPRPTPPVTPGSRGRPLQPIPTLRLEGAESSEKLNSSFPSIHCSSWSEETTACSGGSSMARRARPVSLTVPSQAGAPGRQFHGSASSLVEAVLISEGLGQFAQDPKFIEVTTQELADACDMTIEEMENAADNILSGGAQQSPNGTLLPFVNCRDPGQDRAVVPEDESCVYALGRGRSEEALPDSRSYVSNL
T4 sequence (P54290 25-944 partner limits assumed, other chains not shown): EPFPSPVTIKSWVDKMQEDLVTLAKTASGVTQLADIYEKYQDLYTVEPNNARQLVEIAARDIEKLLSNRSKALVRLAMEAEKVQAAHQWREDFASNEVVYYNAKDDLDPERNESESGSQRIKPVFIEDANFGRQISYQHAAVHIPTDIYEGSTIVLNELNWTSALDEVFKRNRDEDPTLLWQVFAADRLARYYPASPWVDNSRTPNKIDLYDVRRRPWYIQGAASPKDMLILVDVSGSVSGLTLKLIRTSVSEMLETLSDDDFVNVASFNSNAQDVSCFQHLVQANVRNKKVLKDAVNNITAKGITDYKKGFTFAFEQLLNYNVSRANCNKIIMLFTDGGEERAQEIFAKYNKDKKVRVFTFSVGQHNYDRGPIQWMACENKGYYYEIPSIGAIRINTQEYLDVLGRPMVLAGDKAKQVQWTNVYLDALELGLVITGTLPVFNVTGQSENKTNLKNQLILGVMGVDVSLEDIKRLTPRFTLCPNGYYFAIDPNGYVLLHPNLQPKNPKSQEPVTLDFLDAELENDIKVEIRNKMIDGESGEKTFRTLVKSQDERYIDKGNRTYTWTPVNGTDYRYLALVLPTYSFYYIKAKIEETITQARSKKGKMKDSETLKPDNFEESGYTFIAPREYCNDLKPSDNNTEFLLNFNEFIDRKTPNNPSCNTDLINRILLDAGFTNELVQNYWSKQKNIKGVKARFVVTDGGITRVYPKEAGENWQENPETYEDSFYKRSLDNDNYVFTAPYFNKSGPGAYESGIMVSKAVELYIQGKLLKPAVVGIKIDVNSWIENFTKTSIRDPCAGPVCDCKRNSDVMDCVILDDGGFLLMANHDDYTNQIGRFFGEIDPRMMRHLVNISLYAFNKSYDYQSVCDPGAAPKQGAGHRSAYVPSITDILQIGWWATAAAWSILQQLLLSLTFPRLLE
T4 sequence (P54290 945-1091 partner limits assumed, other chains not shown): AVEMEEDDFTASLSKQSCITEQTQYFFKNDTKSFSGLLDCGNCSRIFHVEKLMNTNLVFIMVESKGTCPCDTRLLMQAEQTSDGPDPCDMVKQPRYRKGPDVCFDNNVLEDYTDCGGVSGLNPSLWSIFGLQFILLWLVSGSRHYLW

[1] = [3H]rauwolscine, human α2A receptor, LM(tk−) cells, read-out: pKi alpha-2 2a (converted)
[2] = pKi alpha-2 2b, [3H]rauwolscine, human α2B receptor, LM(tk−) cells
[3] = pKi alpha-2 2c, [3H]rauwolscine, human α2C receptor, LM(tk−) cells
[4] = [3H]nitrendipine, rat cardiac muscle membrane fragments, L-type calcium channel, read-out: pKi Ca (converted)
[5] = [3H]rauwolscine, LM(tk-) cell line L-α2A, SEM and n in lines below, read-out: pKi alpha-2 2a (converted)
[6] = pKi alpha-2 2b, [3H]rauwolscine, LM(tk-) cell line L-NGC-α2B, SEM and n in lines below
[7] = [3H]rauwolscine, LM(tk-) cell line L-α2C, SEM and n in lines below, read-out: pKi alpha-2 2c (converted)
[8] = [3H]rauwolscine, human α2C receptor, LM(tk−) cells, read-out: pKi alpha-2 2c (converted)

SMILES: CCC1=C(C(N)=O)C(c2ccc([N+](=O)[O-])cc2)C(C(=O)NCCCN2CCC(C#N)(c3ccccc3)CC2)=C(CC)N1 (racemic) [(±)-102, 5-Carboxamido-3-{N-[(4-cyano-4-phenylpiperidin-1-ly)propyl]carboxamido-2,6-diethyl-1,4-dihydro-4-(4-nitrophenyl)pyridine hydrochloride hydrate]
- Ki (α2A receptor; [1]): 2.88 µM
- Ki (α2B receptor; [2]): 1.02 µM
- Ki (α2C receptor; [3]): 1.74 µM
- Ki (L-type calcium channel; [4]): 72.4 µM

SMILES: CCC1=C(C(N)=O)C(c2ccc([N+](=O)[O-])cc2)C(C(=O)NCCCN2CCC(C#N)(c3ccccc3)CC2)=C(CC)N1 (single isomer, unassigned; (+)) [(+)-102]
- Ki (α2A receptor; [1]): 3.89 µM
- Ki (α2B receptor; [2]): 1.91 µM
- Ki (α2C receptor; [3]): 3.31 µM
- Ki (L-type calcium channel; [4]): 1000 µM

SMILES: CCC1=C(C(N)=O)C(c2ccc([N+](=O)[O-])cc2)C(C(=O)NCCCN2CCC(C#N)(c3ccccc3)CC2)=C(CC)N1 (single isomer, unassigned; (-)) [(−)-102]
- Ki (α2A receptor; [1]): 1.91 µM
- Ki (α2B receptor; [2]): 0.589 µM
- Ki (α2C receptor; [3]): 1.05 µM
- Ki (L-type calcium channel; [4]): 0.55 µM

SMILES: COC(=O)C1=C(C)NC(C)=C(C(=O)NCCCN2CCC(c3ccccc3)(c3ccccc3)CC2)C1c1ccc(C(F)(F)F)cc1 (stereo not shown) [Example 1]
- Ki (α2A receptor): 2.4 µM
- Ki (α2B receptor; pKi alpha-2 2b): 3.31 µM
- Ki (α2C receptor; pKi alpha-2 2c): 0.17 µM
- Ki (L-type calcium channel; pKi Ca): 6.61 µM

SMILES: CCC1=C(C(=O)NCCCN2CCC(c3ccccc3)(c3ccccc3)CC2)C(c2ccc([N+](=O)[O-])cc2)C(C(=O)OCc2ccccc2)=C(C)N1 (stereo not shown) [Example 4, 5-Benzyloxycarbonyl-2-ethyl-1,4-dihydro-6-methyl-4-(4-nitrophenyl)-3-(N-(3-(4,4-diphenylpiperidin-1-yl)propyl)carboxamido) pyridine, Hydrochloride Salt, Hydrate]
- Ki (α2A receptor; [5]): 0.55 µM
- Ki (α2B receptor; [6]): 1.02 µM
- Ki (α2C receptor; [7]): 0.501 µM
- Ki (L-type calcium channel; [3H]nitrendipine, rat cardiac muscle membranes, SEM and n in lines below, read-out: pKi Ca (converted)): 0.977 µM

SMILES: COC(=O)C1=C(C)NC(C)=C(C(=O)NCCCN2CCC(c3ccccc3)(c3ccccc3)CC2)C1c1ccncc1 (stereo not shown) [Example 5, 1,4-Dihydro-5-methoxycarbonyl-2,6-dimethyl-3-(N-(3-(4,4-diphenylpiperidin-1-yl)propyl)carboxamido)-4-(4-pyridyl)pyridine]
- Ki (α2A receptor): 2.24 µM
- Ki (α2B receptor; pKi alpha-2 2b): 2.14 µM
- Ki (α2C receptor; pKi alpha-2 2c): 24.5 µM
- Ki (L-type calcium channel; pKi Ca): 4.57 µM

SMILES: COC(=O)C1=C(C)NC(C)=C(C(=O)NCCCN2CCC(c3ccccc3)(c3ccccc3)CC2)C1C1CCCCC1 (stereo not shown) [Example 6]
- Ki (α2A receptor): 0.832 µM
- Ki (α2B receptor; pKi alpha-2 2b): 0.447 µM
- Ki (α2C receptor; pKi alpha-2 2c): 0.24 µM
- Ki (L-type calcium channel; pKi Ca): 1.58 µM

SMILES: COC(=O)C1=C(C)NC(C)=C(C(=O)NCCCN2CCC(c3ccccc3)(c3ccccc3)CC2)C1c1cccnc1 (stereo not shown) [Example 14, 1,4-Dihydro-3-methoxycarbonyl-2.6-dimethyl-5-(N-(3-(4,4-diphenylpiperidin-1-yl)propyl)carboxamido)-4-(3-pyridyl)pyridine]
- Ki (α2A receptor; [5]): 2.88 µM
- Ki (α2B receptor; [6]): 1.35 µM
- Ki (α2C receptor; [7]): 1.1 µM

SMILES: CCC1=C(C(N)=O)C(c2ccc([N+](=O)[O-])cc2)C(C(=O)NCCCN2CCC(c3ccccc3)(c3ccccc3)CC2)=C(C)N1 (stereo not shown) [Example 41, 3-Carboxamido-2-ethyl-1,4-dihydro-6-methyl-4-(4-nitrophenyl)-3-{N-[3-(4,4-diphenylpiperidin-1-yl)propyl]}carboxamidopyridine]
- Ki (α2A receptor; [5]): 0.427 µM
- Ki (α2B receptor; [6]): 0.603 µM
- Ki (α2C receptor; [7]): 0.437 µM

SMILES: CCC1=C(C(N)=O)C(c2ccc([N+](=O)[O-])cc2)C(C(=O)NCCCN2CCC(c3ccccc3)(c3ccccc3)CC2)=C(CC)N1 (stereo not shown) [Example 42, 5-carboxamido-2,6-diethyl-1,4-dihydro-4-(4-nitrophenyl)-3-{N-[3-(4,4-diphenylpiperidin-1-yl)propyl]}carboxamidopyridine]
- Ki (α2A receptor; [5]): 0.324 µM
- Ki (α2B receptor; [6]): 0.229 µM
- Ki (α2C receptor; pKi alpha-2 2c, [3H]rauwolscine, LM(tk-) cell line L-α2C, SEM and n in lines below): 0.17 µM

SMILES: CCC1=C(C(N)=O)C(c2ccc(S(C)(=O)=O)cc2)C(C(=O)NCCCN2CCC(c3ccccc3)(c3ccccc3)CC2)=C(CC)N1 (stereo not shown) [Example 116, 5-Carboxamido-2,6-diethyl-1,4-dihydro-4-(4-methanesulfonylphenyl)-3-(N-(3-(4,4-diphenylpiperidin-1-yl)propyl)carboxamido)-pyridine]
- Ki (α2A receptor; [1]): 1.45 µM
- Ki (α2B receptor; [2]): 0.372 µM
- Ki (α2C receptor; [3]): 0.741 µM

SMILES: CCC1=C(C(=O)NC)C(c2ccc([N+](=O)[O-])cc2)C(C(=O)NCCCN2CCC(c3ccccc3)(c3ccccc3)CC2)=C(CC)N1 (stereo not shown) [Example 128, 2,6-Diethyl-1,4-dihydro-5-(N-methyl)carboxamido-4-(4-nitrophenyl)-3-{N-[3-(4,4-diphenylpiperidin-1-yl)propyl]}carboxamidopyridine]
- Ki (α2A receptor; [1]): 0.457 µM
- Ki (α2B receptor; [2]): 0.437 µM
- Ki (α2C receptor; [8]): 0.219 µM

SMILES: CCC1=C(C(=O)OCCC#N)C(c2ccc([N+](=O)[O-])cc2)C(C(=O)NCCCN2CCC(c3ccccc3)(c3ccccc3)CC2)=C(COC)N1 (stereo not shown) [Example 135]
- Ki (α2A receptor; [1]): 0.661 µM
- Ki (α2B receptor; [3H]rauwolscine, human α2B receptor, LM(tk−) cells, read-out: pKi alpha-2 2b (converted)): 0.389 µM
- Ki (α2C receptor; [8]): 0.339 µM

SMILES: CCC1=C(C(=O)NCCCN2CCC(c3ccccc3)(c3ccccc3)CC2)C(c2ccc([N+](=O)[O-])cc2)C(C(=O)OC(C)(C)C)=C(COCCN=[N+]=[N-])N1 (stereo not shown) [Example 139]
- Ki (α2A receptor; [1]): 0.832 µM
- Ki (α2B receptor; [2]): 1.26 µM
- Ki (α2C receptor; [3]): 0.309 µM

SMILES: CCC1=C(C(=O)OCCC#N)C(c2ccc([N+](=O)[O-])cc2)C(C(=O)NCCCN2CCC(c3ccccc3)(c3ccccc3)CC2)=C(COCCN=[N+]=[N-])N1 (stereo not shown) [Example 141]
- Ki (α2A receptor; [1]): 0.603 µM
- Ki (α2B receptor; [2]): 0.437 µM
- Ki (α2C receptor; [3]): 0.355 µM

SMILES: CCNC(=O)C1=C(COCCN=[N+]=[N-])NC(CC)=C(C(=O)NCCCN2CCC(c3ccccc3)(c3ccccc3)CC2)C1c1ccc([N+](=O)[O-])cc1 (stereo not shown) [Example 147, 2-((2-Azidoethyl)oxy)methyl-6-ethyl-3-(N-ethyl)carboxamido-1,4-dihydro-4-(4-nitro)phenyl-5-(N-(3-(4,4-diphenylpiperidin-1-yl-)propyl))carboxamidopyridine]
- Ki (α2A receptor; [1]): 0.871 µM
- Ki (α2B receptor; [2]): 1.1 µM
- Ki (α2C receptor; [3]): 0.251 µM

SMILES: CCC1=C(C(=O)NCCCN2CCC(c3ccccc3)(c3ccccc3)CC2)C(c2ccc([N+](=O)[O-])cc2)C(C(N)=O)=C(COCCN=[N+]=[N-])N1 (stereo not shown) [Example 149, 2-((2-Azidoethyl)oxy)methyl-3-carboxamido-6-ethyl-1,4-dihydro-4-(4-nitro) phenyl-5-(N-(3-(4,4-diphenylpiperidin-1-yl)propyl))carboxamidopyridine]
- Ki (α2A receptor; [1]): 0.501 µM
- Ki (α2B receptor; [2]): 0.562 µM
- Ki (α2C receptor; [3]): 0.257 µM

SMILES: CCC1=C(C(=O)NCCCN2CCC(c3ccccc3)(c3ccccc3)CC2)C(c2ccc([N+](=O)[O-])cc2)C(C(=O)NC)=C(COCCN=[N+]=[N-])N1 (stereo not shown) [Example 151, 2-((2-Azidoethyl)oxy)methyl-6-ethyl-1,4-dihydro-3-(N-methyl)carboxamido-4-(4-nitro)phenyl-5-(N-(3-(4,4-diphenylpiperidin-1-yl)propyl))carboxamidopyridine]
- Ki (α2A receptor; [1]): 0.562 µM
- Ki (α2B receptor; [2]): 0.537 µM
- Ki (α2C receptor; [3]): 0.209 µM
